One test has as its target T1, D2 (Oryctolagus cuniculus, UniProt G1T1Q0).
T1 construct: perfused rabbit ear artery test; from tissue; host or cells: perfused rabbit ear artery (sympathetic nerve terminals)
Nature of the test: perfused rabbit ear artery test for D2-agonist activity.

A further test has as its system D2 -receptors. Nature of the test: peripheral D2-agonist selectivity (general statement, no test named). The conditions noted are these: main locus of action at presynaptic dopaminergic receptors or sympathetic nerve terminals.

Where two headings read alike, the source gives them in different places.

T1 sequence (G1T1Q0 1-443): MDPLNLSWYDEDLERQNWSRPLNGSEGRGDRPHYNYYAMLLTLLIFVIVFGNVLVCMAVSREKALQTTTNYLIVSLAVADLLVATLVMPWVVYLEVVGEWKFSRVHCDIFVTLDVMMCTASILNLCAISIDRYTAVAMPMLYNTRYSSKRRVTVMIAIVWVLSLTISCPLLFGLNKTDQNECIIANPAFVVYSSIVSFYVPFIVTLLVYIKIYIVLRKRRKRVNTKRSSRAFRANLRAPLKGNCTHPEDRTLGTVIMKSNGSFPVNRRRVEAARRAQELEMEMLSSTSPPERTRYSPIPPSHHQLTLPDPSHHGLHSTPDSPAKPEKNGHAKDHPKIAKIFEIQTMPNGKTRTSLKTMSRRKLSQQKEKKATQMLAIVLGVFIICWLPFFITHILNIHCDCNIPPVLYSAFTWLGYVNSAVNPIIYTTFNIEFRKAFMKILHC

For the compound `CCCN(CCC)CCc1ccc(O)c(O)c1` [N,N-di-n-propyldopamine, reference compound], the EC50 – broadly, the concentration needed to bring the measured effect to its halfway point – on D2 (perfused rabbit ear artery test, D2-agonist activity, read-out: EC50) was 50 to 60 nM.
`Br.CCCN(CCC)CCc1ccc(O)c2c1C(=O)C(=O)N2` [4-[2-(di-n-propylamino)ethyl]-7-hydroxyisatin hydrobromide]: the “selective peripheral D2-agonist” value in the test on D2 -receptors is on record as “selective peripheral D2 -agonists”. Moreover, the EC50 at D2 fell in the range of 2 to 7 nM.

These data come from patent US4593106A, “4-[2-(dialkylamino)ethyl]-7-hydroxyisatins” (SmithKline Beckman Corporation, priority 1984, dated 1986).
